Results published in US11807650B2, “NMDA receptor modulators and uses thereof” (Novartis AG, priority 2016, dated 2023).
Where a name gives a salt, the structure may show the parent alone.

Target: T1, human GRIN1 (transcript variant NR1-3) and GRIN2D expressed in Xenopus oocytes (Homo sapiens, UniProt O15399)
T1 construct: GenScript (GRIN2D synthesis) SC115601; host or cells: Xenopus oocytes injected with cRNA (1 GluN1 : 2 GluN2)
Assay: NR2D oocyte potentiation assay (two-electrode voltage clamp)
Format: cell-based
Conditions: 10 uM test compound; glutamate and glycine 10 μM each; holding potential −40 mV
Procedure: NR2D Oocyte Potentiation Assay. Xenopus oocytes (Xenopus 1, Dexter, Mich.) were initially separated from the lobes of an ovary using surgical forceps; they were then defolliculated by constant agitation at room temperature in OR-2 buffer (82.5 mM NaCl; 2.5 mM KCl; 1 mM MgCl2; 5 mM HEPES; pH 7.4) containing 2 mg/ml collagenase Type 1 (Fisher Scientific, USA) for 1.5-2 hours. The cells were then gently aspirated with a Pasteur pipette to remove the follicular tissue; this was followed by washing three times with OR-2 to remove all traces of collagenase. The oocytes were then washed in ND-96 (96 mM NaCl, 2 mM KCl, 1.8 mM CaCl2, 1 mM MgCl2, 5 mM HEPES, 50 ng/L gentamycin, 100 units/ml penicillin and 100 μg/ml streptomycin; pH 7.6) three times and this was followed by incubation in ND-96 at room temperature with mild agitation for 15 minutes; subsequently they were stored for at least 2 hours at 16° C. before sorting and selection for injection. Oocytes selected for injection were incubated overnight in ND-96 at 16° C.
The human GRIN1 (transcript variant NR1-3 (Origene, SKU #: SC115601, Rockville, Md.) and GRIN2D (NCBI locus NM_000836, sequence optimized and synthesized by GenScript) were linearized and transcribed using the mMessage mMachine kit (Life Technologies) and promoters SP6 (for GluN1) and T7 (for GluN2D). cRNAs were mixed together at a ratio of 1 GluN1:2 GluN2. Each oocyte was injected with 50 nL of cRNA and stored in ND96 (96 mM NaCl, 2 mM KCl, 1.8 mM CaCl2, 1 mM MgCl2, 5 mM HEPES, 50 ng/L gentamycin, 100 units/ml penicillin and 100 μg/ml streptomycin; pH 7.6) at 16° C. for 72 h prior to recording.
Currents were recorded using a two-electrode voltage-clamp amplifier (Oocyte Clamp OC-725C; Warner Instrument Corp, Hamden, Conn.), and digitized using Digidata 1550A and pClamp (v. 10) software (Molecular Devices, Sunnyvale, Calif.). Electrodes were filled with 3 M KCl and had resistances that ranged from 0.2-1 MO. All measurements were made at a holding potential of −40 mV. Cells were continuously perfused with oocyte recording solution containing 90 mM NaCl, 1 mM KCl, 0.5 mM BaCl2, and 10 mM HEPES (Ph 7.4). Glutamate and Glycine (co-agonists) were applied at respective concentrations of 10 μM each. Co-agonists were applied until a plateau was reached, and test compounds were then added in the continued presence of co-agonists until a new plateau was reached. After the addition of the last test compound concentration, the oocyte was washed with oocyte recording buffer. Fraction of current remaining was calculated as [(current in presence of test compound−background current)/(co-agonist current−background current)] and IC50 values were computed using Prism 6.0 (Graphpad).

T1 sequence (O15399 28-1336, other chains not shown): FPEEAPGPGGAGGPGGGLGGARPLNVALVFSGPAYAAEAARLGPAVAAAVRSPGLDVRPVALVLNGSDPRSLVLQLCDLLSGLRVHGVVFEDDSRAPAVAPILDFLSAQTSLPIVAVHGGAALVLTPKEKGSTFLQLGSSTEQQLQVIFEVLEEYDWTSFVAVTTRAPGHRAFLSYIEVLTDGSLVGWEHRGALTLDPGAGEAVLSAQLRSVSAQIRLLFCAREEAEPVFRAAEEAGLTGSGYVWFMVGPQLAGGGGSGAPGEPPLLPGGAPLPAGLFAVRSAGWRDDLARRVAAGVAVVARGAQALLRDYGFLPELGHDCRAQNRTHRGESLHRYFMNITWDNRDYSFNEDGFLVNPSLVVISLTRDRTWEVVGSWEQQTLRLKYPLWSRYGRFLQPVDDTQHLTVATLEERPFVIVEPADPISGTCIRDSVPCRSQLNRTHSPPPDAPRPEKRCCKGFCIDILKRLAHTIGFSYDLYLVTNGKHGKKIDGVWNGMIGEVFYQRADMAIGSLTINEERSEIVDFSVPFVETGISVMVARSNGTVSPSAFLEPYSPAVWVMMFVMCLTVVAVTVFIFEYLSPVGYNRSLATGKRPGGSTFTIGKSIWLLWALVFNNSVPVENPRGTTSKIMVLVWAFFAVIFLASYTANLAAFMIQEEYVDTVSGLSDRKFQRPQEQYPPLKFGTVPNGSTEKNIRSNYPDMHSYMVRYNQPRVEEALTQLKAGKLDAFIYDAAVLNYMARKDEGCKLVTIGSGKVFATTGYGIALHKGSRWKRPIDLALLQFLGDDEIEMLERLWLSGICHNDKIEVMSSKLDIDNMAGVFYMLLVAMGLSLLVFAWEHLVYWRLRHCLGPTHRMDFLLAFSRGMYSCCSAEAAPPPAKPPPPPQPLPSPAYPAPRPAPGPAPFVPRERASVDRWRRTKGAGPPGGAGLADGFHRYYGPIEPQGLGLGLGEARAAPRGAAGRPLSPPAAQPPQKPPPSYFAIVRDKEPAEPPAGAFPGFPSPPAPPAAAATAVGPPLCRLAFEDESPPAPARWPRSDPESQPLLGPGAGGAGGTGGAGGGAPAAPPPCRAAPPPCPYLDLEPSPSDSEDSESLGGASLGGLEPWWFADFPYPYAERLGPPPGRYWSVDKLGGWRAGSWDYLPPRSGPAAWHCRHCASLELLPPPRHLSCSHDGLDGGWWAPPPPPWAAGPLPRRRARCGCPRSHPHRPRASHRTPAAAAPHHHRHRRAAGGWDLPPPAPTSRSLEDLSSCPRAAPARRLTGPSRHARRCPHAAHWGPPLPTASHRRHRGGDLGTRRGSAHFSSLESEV

SMILES	activation at 10 µM [%]	NR2D Oocyte % Potentiation @ 10 uM
COC[C@@H]1CSc2nc(-c3cnc(C(C)(C)C)c(F)c3)c(C#N)c(=O)n2C1 [Example 167, (R)-8-(6-(tert-butyl)-5-fluoropyridin-3-yl)-3-(methoxymethyl)-6-oxo-3,4-dihydro-2H,6H-pyrimido[2,1-b][1,3]thiazine-7-carbonitrile]	> 1000	–
Cc1ccc2nc(-c3ccc(C(C)(C)C)nc3)c(C#N)c(=O)n2c1 [Example 21, 2-(6-(tert-butyl)pyridin-3-yl)-7-methyl-4-oxo-4H-pyrido[1,2-a]pyrimidine-3-carbonitrile]	100 to 500	–
COCOC[C@@H]1CSc2nc(-c3cnc(C(C)(C)C)c(F)c3)c(C#N)c(=O)n2C1 [Example 172, (R)-8-(6-(tert-butyl)-5-fluoropyridin-3-yl)-3-((methoxymethoxy)methyl)-6-oxo-3,4-dihydro-2H,6H-pyrimido[2,1-b][1,3]thiazine-7-carbonitrile]	> 1000	–
CSCC1COc2nc(-c3cnc(C(C)(C)C)c(F)c3)c(C#N)c(=O)n2C1 (stereo not shown) [Example 164, 8-(6-(tert-butyl)-5-fluoropyridin-3-yl)-3-((methylthio)methyl)-6-oxo-3,4-dihydro-2H,6H-pyrimido[2,1-b][1,3]oxazine-7-carbonitrile]	10 to 100	–
CC(C)(C)OC(=O)NCC1CSc2nc(-c3ccc(C(C)(C)C)nc3)c(C#N)c(=O)n2C1 (stereo not shown) [Example 144, tert-butyl ((8-(6-(tert-butyl)pyridin-3-yl)-7-cyano-6-oxo-3,4-dihydro-2H,6H-pyrimido[2,1-b][1,3]thiazin-3-yl)methyl)carbamate]	> 1000	–
N#Cc1c(-c2ccnc(C3CC3)n2)nc2n(c1=O)CCCS2 [Example 180, 8-(2-cyclopropylpyrimidin-4-yl)-6-oxo-2H,3H,4H,6H-pyrimido[2,1-b][1,3]thiazine-7-carbonitrile]	< 10	–
CC(C)(C)OCC1CSc2nc(-c3cnc(C(C)(C)C)c(F)c3)c(C#N)c(=O)n2C1 (stereo not shown) [Example 173, 3-(tert-butoxymethyl)-8-(6-(tert-butyl)-5-fluoropyridin-3-yl)-6-oxo-3,4-dihydro-2H,6H-pyrimido[2,1-b][1,3]thiazine-7-carbonitrile]	10 to 100	–
CC(C)(C)c1ncc(-c2nc3n(c(=O)c2C#N)C[C@H](CO)CS3)cn1 [Example 138, (R)-8-(2-(tert-butyl)pyrimidin-5-yl)-3-(hydroxymethyl)-6-oxo-3,4-dihydro-2H,6H-pyrimido[2,1-b][1,3]thiazine-7-carbonitrile]	> 1000	–

The next lines start with the values.

activation at 10 µM [%]	NR2D Oocyte % Potentiation @ 10 uM	SMILES
100 to 500	–	CC(C)(C)c1ccc(-c2nc3n(c(=O)c2Br)CCCS3)cn1 [Example 30, 7-bromo-8-(6-(tert-butyl)pyridin-3-yl)-3,4-dihydro-2H,6H-pyrimido[2,1-b][1,3]thiazin-6-one]
> 1000	–	CC1CSc2cc(-c3cnc(C(C)(C)C)c(F)c3)c(C#N)c(=O)n2C1 (stereo not shown) [Example 103, 8-(6-(tert-butyl)-5-fluoropyridin-3-yl)-3-methyl-6-oxo-3,4-dihydro-2H,6H-pyrido[2,1-b][1,3]thiazine-7-carbonitrile]
10 to 100	–	CC(C)(C)c1ccc(-c2nc3n(c(=O)c2C#N)CC(CN)CS3)cn1 (stereo not shown) [Example 145, 3-(aminomethyl)-8-(6-(tert-butyl)pyridin-3-yl)-6-oxo-3,4-dihydro-2H,6H-pyrimido[2,1-b][1,3]thiazine-7-carbonitrile hydrochloride]
–	Inhibitor	CC1(C)CN(c2ccc(-c3nc4n(c(=O)c3C#N)CCCS4)cn2)C1 [Example 54, 8-(6-(3,3-dimethylazetidin-1-yl)pyridin-3-yl)-6-oxo-3,4-dihydro-2H,6H-pyrimido[2,1-b][1,3]thiazine-7-carbonitrile]
> 1000	–	CC(C)(C)c1ccc(-c2cc3n(c(=O)c2C#N)CCCS3)cc1 [Example 68, 8-(4-(tert-butyl)phenyl)-6-oxo-3,4-dihydro-2H,6H-pyrido[2,1-b][1,3]thiazine-7-carbonitrile]
